Test results: patent US7825151B2, “Hexahydro-cyclooctyl pyrazole cannabinoid modulators” (priority 2005, dated 2010)

How the values were obtained:
human CB1 receptor = target: T1, human CB1 receptor (Homo sapiens, UniProt P21554); test: Functional cell-based CRE β-gal assay, CB1 (adenylate cyclase activity); details: single test concentration 1 μM (footnote 2)
T1 construct: expressed in transfected cells; host or cells: SK-N-MC cells, stably transfected with pcDNA3 CB-1 (human)
Source text: The CB1 and CB2 receptors are G-protein coupled receptors (GPCR), which influence cell function via the Gi-protein. These receptors modulate the activity of intracellular adenylate cyclase, which in turn produces the intracellular signal messenger cyclic-AMP (cAMP).
At baseline, or during non-ligand bound conditions, these receptors are constitutively active and tonically suppress adenylate cyclase activity. The binding of an agonist causes further receptor activation and produces additional suppression of adenylate cyclase activity. The binding of an inverse agonist inhibits the constitutive activity of the receptors and results in an increase in adenylate cyclase activity.
By monitoring intracellular adenylate cyclase activity, the ability of compounds to act as agonists or inverse agonists can be determined.
Test compounds were evaluated in SK-N-MC cells which, using standard transfection procedures, were stably transfected with human cDNA for pcDNA3-CRE β-gal and pcDNA3 CB1 receptor (human) or pcDNA3 CB2 receptor (human). By expressing CRE β-gal, the cells produced β-galactosidase in response to CRE promoter activation by cAMP. Cells expressing CRE β-gal and either the human CB1 or CB2 receptor will produce less β-galactosidase when treated with a CB1/CB2 agonist and will produce more β-galactosidase when treated with a CB1/CB2 inverse agonist.
The cells were grown in 96-well plates under standard cell culture conditions at 37° C. in a 5% CO2 atmosphere. After 3 days, the media was removed and a test compound in media (wherein the media was supplemented with 2 mM L-glutamine, […] sodium pyruvate, 0.1% low fatty acid FBS (fetal bovine serum) and antibiotics) was added to the cell. The plates were incubated for 30 minutes at 37° C. and the plate cells were then treated with forskolin over a 4-6 hour period, then washed and lysed. The β-galactosidase activity was quantitated using commercially available kit reagents (Promega Corp. Madison, Wis.) and a Vmax Plate Reader (Molecular Devices, Inc).
The change in β-galactosidase activity was determined by setting a vehicle treated cell's activity value at 100% and expressing the β-galactosidase activity measured in a corresponding compound treated cell as a percent of the vehicle treated cell activity.
The EC50 value for functional activity for compounds tested was calculated by linear regression and was obtained from studies in which varying compound concentrations were used. Data provided for certain compounds is represented by percent change (%) in functional activity at a single test concentration: ^(1)10 μM and ^(2)1 μM.

DSS induced colitis = test: Dextran sulfate sodium (DSS) induced colitis model; format: in vivo, Female Balb/c mice; details: for % Inh (Macro), % inhibition of colitis: macroscopic score
Source text: In the distal colon, the DSS colitis model is characterized by a discontinuous pattern of mucosal epithelial damage, infiltration of inflammatory cells (including macrophages, neutrophils and lymphocytes) into the mucosa and submucosa, […] wet weight of the colon, shrinkage of the colon length and diarrhea (see, Blumberg R. S., Saubermann L. J. and Strober W., Animal models of mucosal inflammation and their relation to human inflammatory bowel disease, Current Opinion in Immunology, 1999, Vol. 11: 648-656; Egger B., Bajaj-Elliott M., MacDonald T. T., Inglin R., Eysselein, V. E. and Buchler M. W., Characterization of acute murine dextran sodium sulphate colitis: Cytokine profile and dose dependency, Digestion, 2000, Vol. 62: 240-248; Stevceva L., Pavli P., Husband A. J. and Doe, W. F., The inflammatory infiltrate in the acute stage of the dextran sulphate sodium induced colitis: B cell response differs depending on the percentage of DSS used to induce it, BMC Clinical Pathology, 2001, Vol 1: 3-13; and Diaz-Granados, Howe K., Lu J. and McKay D. M., Dextran sulfate sodium-induced colonic histopathology, but not altered epithelial ion transport, is reduced by inhibition of phosphodiesterase activity, Amer. J. Pathology, 2000, Vol. 156: 2169-2177).
Female Balb/c mice (Taconic Farms, Germantown, N.Y.) (10-13 weeks old) were provided with a solution of 5% DSS (45 kD molecular weight, ICN chemicals, Newport, Calif.) in tap water ad libitum over a 7-day period. The DSS solution was replenished daily and the amount consumed was measured.
The mice (10 per treatment group) were orally administered a test compound on the day of colitis induction and then daily thereafter.
Six days after the initial DSS administration, the last test compound dose was administered.
Seven days after the initial DSS administration, the animals were sacrificed. The colons were resected, examined for signs of inflammation, weighed after removing fecal contents and the length from the aboral end of the cecum to the anus was measured. The fecal contents were examined for signs of diarrhea. The distal colon between the 1st and the 4th centimeter was removed and placed in 10% neutral buffered formalin for histological analysis.
The macroscopic observations of colon inflammation (a measure of colon damage), colon length and stool consistency and appearance were assigned a score and used to evaluate colitis severity.
The three observation scores for each colon were combined, whereby a combined score of 0 represents a normal colon and a combined score of 11 represents a maximally affected colon. Statistical analyses were performed in Graphpad Prism 4.0 using ANOVA.
Histological analyses of tissues consisted of staining paraffin-embedded tissue sections with hematoxylin-eosin dye. The tissues were examined using light microscopy by an investigator who was blinded to the sample groups.
The microscopic observations of epithelial damage, cellular infiltration and damage or alteration of smooth muscle architecture (a measure of muscle damage) were assigned a score and used to evaluate colitis severity.
The scores for each colon were combined, whereby a combined score of 0 represents a normal colon and a combined score of 9 represents a maximally affected colon. […]
The Macroscopic Score and Microscopic Score results for each treatment group were each combined into a mean score and expressed as % inhibition of colitis (% Inh). […] ND represents Not Determined.

T1 sequence (P21554 whole entry): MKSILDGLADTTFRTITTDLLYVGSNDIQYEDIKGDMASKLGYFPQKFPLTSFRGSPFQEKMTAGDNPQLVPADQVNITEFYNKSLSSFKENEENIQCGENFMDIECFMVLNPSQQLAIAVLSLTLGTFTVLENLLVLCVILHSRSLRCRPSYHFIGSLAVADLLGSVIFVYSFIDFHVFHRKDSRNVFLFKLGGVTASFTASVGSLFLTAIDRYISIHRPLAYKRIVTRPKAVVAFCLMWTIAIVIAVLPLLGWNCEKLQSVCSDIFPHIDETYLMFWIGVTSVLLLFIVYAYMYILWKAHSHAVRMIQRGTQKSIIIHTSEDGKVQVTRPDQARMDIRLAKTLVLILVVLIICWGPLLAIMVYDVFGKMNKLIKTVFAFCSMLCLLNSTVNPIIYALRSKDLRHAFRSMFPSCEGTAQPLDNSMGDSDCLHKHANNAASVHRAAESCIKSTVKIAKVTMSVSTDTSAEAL

## O=C(NCC12CC3CC(CC(C3)C1)C2)c1nn(C2CCCCC2)c2c1CCCCCC2 [Cpd 2, 1-cyclohexyl-4,5,6,7,8,9-hexahydro-1H-cyclooctapyrazole-3-carboxylic acid (adamantan-1-ylmethyl)-amide]
Human CB1 receptor
  CB1 receptor percent change in functional activity: ^(2)−71%
DSS induced colitis; 1 mg/kg oral daily
  % Inh (Macro), % inhibition of colitis: −4.3 ± 12.9%
DSS induced colitis; 5 mg/kg oral daily
  % Inh (Macro), % inhibition of colitis: 21.9 ± 15.2%
DSS induced colitis; 5 mg/kg oral daily, microscopic score
  % Inh (Micro), % inhibition of colitis: 75.7 ± 8.9%
DSS induced colitis; 10 mg/kg oral daily
  % Inh (Macro), % inhibition of colitis: 50.5 ± 9.0%
DSS induced colitis; 20 mg/kg oral daily
  % Inh (Macro), % inhibition of colitis: 31.6 ± 8.5%
